Experiments:
Format in all cases: biochemical
EGFR = EGFR (Homo sapiens, UniProt P00533); experiment: Kinase panel inhibition, EGFR (one of the methods of Example 76a, 76b, 76c)
Method in brief: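 Kinase activity was measured by TR-FRET in 50 μL reactions in 96-well plates. Enzyme, inhibitor, ATP at its Km and a biotinylated peptide substrate were incubated for one hour at pH 7.4 in buffer containing 20 mM Tris, 50 mM NaCl, MgCl2, MnCl2, 1 mM DTT, 0.1 mM EDTA, 0.01% bovine serum albumin, 0.005% Tween-20 and 10% DMSO. Reactions were stopped with EDTA in Lance buffer. Streptavidin-APC and Eu-labeled p-Tyr100 antibody were added for one hour. The 665/615 nm emission ratio gave activity. IC50 was derived from Ki(app) fitted with BatchKi.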

LCK = LCK (Homo sapiens, UniProt P06239); experiment: Kinase panel inhibition, LCK (one of the methods of Example 76a, 76b, 76c)
Method in brief: (§1)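 BTK (0.5 nM) and LCK (6 nM) by TR-FRET, ATP at Km, biotinylated peptide, pH 7.4, 1 h; Ki(app) converted to IC50. Alternatively, full-length His6-BTK (1 nM) by mobility shift, 16 μM ATP (Km), 1 μM FAM peptide, pH 7.5, 1 h; IC50 from 12-point 4-parameter fit. Radiometric filter-binding option also used.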

BTK = target: T1, BTK (Homo sapiens, UniProt Q06187); experiment: Btk in vitro inhibitory activity (kinase assay by one of Methods A, B or C)
T1 construct: purified from insect cells as a full-length construct containing a N-terminal 6×-His tag; His6 (N); host or cells: insect cells (baculovirus Sf21)
Method in brief: as §1

Sequence of EGFR (P00533 25-1210, species assumed): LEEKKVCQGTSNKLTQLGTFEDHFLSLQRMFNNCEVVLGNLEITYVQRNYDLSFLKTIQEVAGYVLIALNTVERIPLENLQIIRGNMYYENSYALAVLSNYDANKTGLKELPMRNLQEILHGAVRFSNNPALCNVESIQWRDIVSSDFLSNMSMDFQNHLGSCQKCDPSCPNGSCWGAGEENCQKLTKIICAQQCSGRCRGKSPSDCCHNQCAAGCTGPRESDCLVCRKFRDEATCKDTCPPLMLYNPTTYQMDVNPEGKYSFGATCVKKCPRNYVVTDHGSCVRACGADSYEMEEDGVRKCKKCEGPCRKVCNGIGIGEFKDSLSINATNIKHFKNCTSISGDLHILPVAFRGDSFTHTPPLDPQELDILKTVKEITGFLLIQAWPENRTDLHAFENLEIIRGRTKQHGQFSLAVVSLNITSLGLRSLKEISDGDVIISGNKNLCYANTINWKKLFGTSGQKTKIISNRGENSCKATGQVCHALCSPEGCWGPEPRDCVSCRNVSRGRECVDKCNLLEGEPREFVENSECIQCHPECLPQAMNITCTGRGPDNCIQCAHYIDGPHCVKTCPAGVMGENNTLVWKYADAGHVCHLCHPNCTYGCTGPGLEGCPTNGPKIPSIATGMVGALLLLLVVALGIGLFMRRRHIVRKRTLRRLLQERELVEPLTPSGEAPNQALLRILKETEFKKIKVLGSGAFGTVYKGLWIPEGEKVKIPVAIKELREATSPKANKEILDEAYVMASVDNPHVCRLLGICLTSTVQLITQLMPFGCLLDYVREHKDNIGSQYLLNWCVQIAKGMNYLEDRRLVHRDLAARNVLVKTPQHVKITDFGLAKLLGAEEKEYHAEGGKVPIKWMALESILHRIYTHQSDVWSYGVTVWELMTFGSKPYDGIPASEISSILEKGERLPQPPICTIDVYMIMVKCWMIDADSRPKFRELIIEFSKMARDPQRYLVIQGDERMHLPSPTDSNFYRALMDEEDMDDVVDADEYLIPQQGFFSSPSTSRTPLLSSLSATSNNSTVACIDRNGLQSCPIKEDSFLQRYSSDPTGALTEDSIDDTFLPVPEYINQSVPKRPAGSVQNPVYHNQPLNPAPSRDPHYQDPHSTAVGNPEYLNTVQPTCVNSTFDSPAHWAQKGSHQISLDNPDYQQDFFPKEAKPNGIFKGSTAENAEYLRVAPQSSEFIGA
T1 sequence (Q06187 whole entry): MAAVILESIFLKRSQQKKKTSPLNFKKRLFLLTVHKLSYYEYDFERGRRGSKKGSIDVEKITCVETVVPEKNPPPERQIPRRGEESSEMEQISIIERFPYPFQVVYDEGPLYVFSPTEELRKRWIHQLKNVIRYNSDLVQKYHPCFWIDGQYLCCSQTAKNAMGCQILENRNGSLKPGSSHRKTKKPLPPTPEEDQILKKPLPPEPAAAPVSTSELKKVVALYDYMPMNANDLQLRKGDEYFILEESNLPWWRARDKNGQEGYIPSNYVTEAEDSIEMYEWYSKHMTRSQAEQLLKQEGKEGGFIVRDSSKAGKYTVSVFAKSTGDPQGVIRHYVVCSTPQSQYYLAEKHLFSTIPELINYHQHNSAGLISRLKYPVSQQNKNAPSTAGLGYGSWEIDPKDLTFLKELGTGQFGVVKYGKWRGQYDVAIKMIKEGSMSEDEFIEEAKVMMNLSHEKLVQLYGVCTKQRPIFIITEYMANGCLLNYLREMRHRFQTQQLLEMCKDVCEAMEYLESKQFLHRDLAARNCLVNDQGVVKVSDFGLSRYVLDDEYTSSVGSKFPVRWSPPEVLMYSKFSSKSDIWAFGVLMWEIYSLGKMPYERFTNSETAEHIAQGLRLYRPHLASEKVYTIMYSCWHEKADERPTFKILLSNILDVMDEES
Sequence of LCK (P06239 whole entry, species assumed): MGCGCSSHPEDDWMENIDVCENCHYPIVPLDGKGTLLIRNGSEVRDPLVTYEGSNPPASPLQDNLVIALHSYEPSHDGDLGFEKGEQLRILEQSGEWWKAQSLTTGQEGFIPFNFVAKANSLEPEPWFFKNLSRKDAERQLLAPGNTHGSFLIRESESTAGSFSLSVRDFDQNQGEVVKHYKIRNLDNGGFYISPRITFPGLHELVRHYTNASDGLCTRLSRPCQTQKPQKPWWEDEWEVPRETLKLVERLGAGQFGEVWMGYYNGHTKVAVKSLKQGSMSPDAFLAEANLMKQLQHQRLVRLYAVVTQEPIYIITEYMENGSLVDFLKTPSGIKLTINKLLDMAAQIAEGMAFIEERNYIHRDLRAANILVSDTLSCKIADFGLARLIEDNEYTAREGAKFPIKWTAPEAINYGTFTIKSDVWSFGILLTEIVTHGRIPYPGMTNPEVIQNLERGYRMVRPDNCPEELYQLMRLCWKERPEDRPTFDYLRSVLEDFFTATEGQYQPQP

Row | SMILES | IC50 (EGFR) | IC50 (LCK) | IC50 (BTK)
1 | Cc1cc(N(C)C(=O)/C=C/CN(C)C2CC2)cc(-n2c(=O)n(-c3ccc(Oc4ccccc4)cc3)c3c(N)ncnc32)c1 [Compound 211, (E)-N-(3-(6-amino-8-oxo-7-(4-phenoxyphenyl)-7H-purin-9(8H)-yl)-5-methylphenyl)-4-(cyclopropyl(methyl)amino)-N-methylbut-2-enamide] | 100 to 1000 nM | 1000 to 10000 nM | < 100 nM
2 | COc1cc(-n2c(=O)n([C@@H]3CCN(C(=O)/C=C/CN(C)C)C3)c3ncnc(N)c32)ccc1C [Compound 81, (R,E)-6-amino-9-(1-(4-(dimethylamino)but-2-enoyl)pyrrolidin-3-yl)-7-(3-methoxy-4-methylphenyl)-7H-purin-8(9H)-one] | > 10000 nM | 1000 to 10000 nM | < 100 nM
3 | CN(C)C/C=C/C(=O)N(C)c1cccc(-n2c(=O)n(-c3ccc(Oc4ccccc4)cc3)c3c(N)ncnc32)c1 [Compound 33, (E)-N-(3-(6-amino-8-oxo-7-(4-phenoxyphenyl)-7H-purin-9(8H)-yl)phenyl)-4-(dimethylamino)-N-methylbut-2-enamide] | 100 to 1000 nM | 1000 to 10000 nM | < 100 nM
4 | CN(C/C=C/C(=O)N1CCOc2ccc(-n3c(=O)n(-c4ccc(Oc5ccccc5)cc4)c4c(N)ncnc43)cc21)C1CC1 [Compound 161, (E)-6-amino-9-(4-(4-(cyclopropyl(methyl)amino)but-2-enoyl)-3,4-dihydro-2H-benzo[b][1,4]oxazin-6-yl)-7-(4-phenoxyphenyl)-7H-purin-8(9H)-one] | 100 to 1000 nM | 1000 to 10000 nM | < 100 nM
5 | C=CC(=O)Nc1cccc(-n2c(=O)n(-c3ccc(Oc4ccccc4)cc3)c3c(N)ncnc32)c1 [Compound 11, N-(3-(6-amino-8-oxo-7-(4-phenoxyphenyl)-7H-purin-9(8H)-yl)phenyl)acrylamide] | < 100 nM | < 100 nM | < 100 nM
6 | CN(C(=O)/C=C/CN(C)C1CC1)c1cccc(-n2c(=O)n(-c3ccc(OCc4cccc(F)c4)cc3)c3c(N)ncnc32)c1 [Compound 244, (E)-N-(3-(6-amino-7-(4-(3-fluorobenzyloxy)phenyl)-8-oxo-7H-purin-9(8H)-yl)phenyl)-4-(cyclopropyl(methyl)amino)-N-methylbut-2-enamide] | 1000 to 10000 nM | > 10000 nM | < 100 nM
7 | CN(C)C/C=C/C(=O)N(C)c1ccc(-n2c(=O)n(-c3ccc(Cl)cc3)c3c(N)ncnc32)cc1 [Compound 48, (E)-N-(4-(6-amino-7-(4-chlorophenyl)-8-oxo-7H-purin-9(8H)-yl)phenyl)-4-(dimethylamino)-N-methylbut-2-enamide] | > 10000 nM | 1000 to 10000 nM | 100 to 1000 nM
8 | COc1ccc(-n2c(=O)n(-c3ccc(Oc4cccc(F)c4)cc3)c3c(N)ncnc32)cc1N(C)C(=O)/C=C/CN(C)C1CC1 [Compound 312, (E)-N-(5-(6-amino-7-(4-(3-fluorophenoxy)phenyl)-8-oxo-7H-purin-9(8H)-yl)-2-methoxyphenyl)-4-(cyclopropyl(methyl)amino)-N-methylbut-2-enamide] | > 10000 nM | > 10000 nM | < 100 nM
9 | COc1cc(N(C)C(=O)/C=C/CN(C)C2CC2)cc(-n2c(=O)n(-c3ccc(Oc4ccccc4)cc3)c3c(N)ncnc32)c1 [Compound 224, (E)-N-(3-(6-amino-8-oxo-7-(4-phenoxyphenyl)-7H-purin-9(8H)-yl)-5-methoxyphenyl)-4-(cyclopropyl(methyl)amino)-N-methylbut-2-enamide] | 1000 to 10000 nM | 1000 to 10000 nM | < 100 nM
10 | CN(C(=O)/C=C/CN(C)C1CC1)c1cccc(-n2c(=O)n(-c3ccc(OCc4ccccc4)cc3)c3c(N)ncnc32)c1 [Compound 234, (E)-N-(3-(6-amino-7-(4-(benzyloxy)phenyl)-8-oxo-7H-purin-9(8H)-yl)phenyl)-4-(cyclopropyl(methyl)amino)-N-methylbut-2-enamide] | 1000 to 10000 nM | 1000 to 10000 nM | < 100 nM
11 | CN(C/C=C/C(=O)N1CC[C@@H](n2c(=O)n(-c3ccc(Oc4ccccc4)cc3)c3c(N)ncnc32)C1)C1CCC1 [Compound 64, (R,E)-6-amino-9-(1-(4-(cyclobutyl(methyl)amino)but-2-enoyl)pyrrolidin-3-yl)-7-(4-phenoxyphenyl)-7H-purin-8(9H)-one] | 1000 to 10000 nM | 100 to 1000 nM | < 100 nM
12 | CNC/C=C/C(=O)Nc1cccc(-n2c(=O)n(-c3ccc(Oc4ccccc4)cc3)c3c(N)ncnc32)c1 [Compound 329, (E)-N-(3-(6-amino-8-oxo-7-(4-phenoxyphenyl)-7H-purin-9(8H)-yl)phenyl)-4-(methylamino)but-2-enamide] | < 100 nM | 100 to 1000 nM | < 100 nM
13 | CN(C/C=C/C(=O)N1CCOc2ccc(-n3c(=O)n(-c4ccc(Oc5cccc(F)c5)cc4)c4c(N)ncnc43)cc21)C1CC1 [Compound 306, (E)-6-amino-9-(4-(4-(cyclopropyl(methyl)amino)but-2-enoyl)-3,4-dihydro-2H-benzo[b][1,4]oxazin-6-yl)-7-(4-(3-fluorophenoxy)phenyl)-7H-purin-8(9H)-one] | 100 to 1000 nM | 1000 to 10000 nM | < 100 nM
14 | COc1cc(-n2c(=O)n(-c3cccc(N(C)C(=O)/C=C/CN(C)C4CC4)c3)c3ncnc(N)c32)ccc1Oc1ccccc1 [Compound 285, (E)-N-(3-(6-amino-7-(3-methoxy-4-phenoxyphenyl)-8-oxo-7H-purin-9(8H)-yl)phenyl)-4-(cyclopropyl(methyl)amino)-N-methylbut-2-enamide] | 1000 to 10000 nM | 1000 to 10000 nM | < 100 nM
15 | CN(C/C=C/C(=O)Nc1cccc(-n2c(=O)n(-c3ccc(Oc4ccccc4)cc3)c3c(N)ncnc32)c1)C1CCC1 [Compound 10, (E)-N-(3-(6-amino-8-oxo-7-(4-phenoxyphenyl)-7H-purin-9(8H)-yl)phenyl)-4-(cyclobutyl(methyl)amino)but-2-enamide] | < 100 nM | 100 to 1000 nM | < 100 nM
16 | COc1cc(-n2c(=O)n(-c3cccc(NC(=O)/C=C/CN(C)C)c3)c3ncnc(N)c32)ccc1C [Compound 17, (E)-N-(3-(6-amino-7-(3-methoxy-4-methylphenyl)-8-oxo-7H-purin-9(8H)-yl)phenyl)-4-(dimethylamino)but-2-enamide] | 1000 to 10000 nM | 1000 to 10000 nM | < 100 nM
17 | CN(C)C/C=C/C(=O)N1CCC(Cn2c(=O)n(-c3ccc(Oc4ccccc4)cc3)c3c(N)ncnc32)CC1 [Compound 75, (E)-6-amino-9-((1-(4-(dimethylamino)but-2-enoyl)piperidin-4-yl)methyl)-7-(4-phenoxyphenyl)-7H-purin-8(9H)-one] | 1000 to 10000 nM | 100 to 1000 nM | < 100 nM

Source: patent US9469642B2, “Purinone compounds as kinase inhibitors” (Pharmacyclics LLC, priority 2012, dated 2016)
